We go through seven compounds from ChEMBL document CHEMBL1201862, “PubChem BioAssay data set” (2004).

The target of assay [1] is T1, Mannose-6-phosphate isomerase (Homo sapiens, UniProt P34949).
T1 sequence (P34949 whole entry): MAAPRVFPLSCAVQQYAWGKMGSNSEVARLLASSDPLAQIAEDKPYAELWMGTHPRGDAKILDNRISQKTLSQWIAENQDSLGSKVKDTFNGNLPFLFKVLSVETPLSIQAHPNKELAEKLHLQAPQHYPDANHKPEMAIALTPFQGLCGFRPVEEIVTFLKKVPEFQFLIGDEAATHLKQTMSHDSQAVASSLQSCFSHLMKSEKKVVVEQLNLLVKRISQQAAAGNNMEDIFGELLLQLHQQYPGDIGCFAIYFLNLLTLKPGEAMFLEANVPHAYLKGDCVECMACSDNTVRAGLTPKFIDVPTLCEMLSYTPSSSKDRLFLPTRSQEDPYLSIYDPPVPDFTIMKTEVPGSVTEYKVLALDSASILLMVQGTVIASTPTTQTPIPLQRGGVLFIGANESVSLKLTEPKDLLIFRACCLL
The experiment in a line: MPI inhibition at elevated mannose 6-phosphate – biochemical, fluorescence intensity, high mannose 6-phosphate, primary screen (AID 1220).

For assay [2], the target named is T2, ORF 73 (Human herpesvirus 8, UniProt O40947).
T2 sequence (O40947 whole entry): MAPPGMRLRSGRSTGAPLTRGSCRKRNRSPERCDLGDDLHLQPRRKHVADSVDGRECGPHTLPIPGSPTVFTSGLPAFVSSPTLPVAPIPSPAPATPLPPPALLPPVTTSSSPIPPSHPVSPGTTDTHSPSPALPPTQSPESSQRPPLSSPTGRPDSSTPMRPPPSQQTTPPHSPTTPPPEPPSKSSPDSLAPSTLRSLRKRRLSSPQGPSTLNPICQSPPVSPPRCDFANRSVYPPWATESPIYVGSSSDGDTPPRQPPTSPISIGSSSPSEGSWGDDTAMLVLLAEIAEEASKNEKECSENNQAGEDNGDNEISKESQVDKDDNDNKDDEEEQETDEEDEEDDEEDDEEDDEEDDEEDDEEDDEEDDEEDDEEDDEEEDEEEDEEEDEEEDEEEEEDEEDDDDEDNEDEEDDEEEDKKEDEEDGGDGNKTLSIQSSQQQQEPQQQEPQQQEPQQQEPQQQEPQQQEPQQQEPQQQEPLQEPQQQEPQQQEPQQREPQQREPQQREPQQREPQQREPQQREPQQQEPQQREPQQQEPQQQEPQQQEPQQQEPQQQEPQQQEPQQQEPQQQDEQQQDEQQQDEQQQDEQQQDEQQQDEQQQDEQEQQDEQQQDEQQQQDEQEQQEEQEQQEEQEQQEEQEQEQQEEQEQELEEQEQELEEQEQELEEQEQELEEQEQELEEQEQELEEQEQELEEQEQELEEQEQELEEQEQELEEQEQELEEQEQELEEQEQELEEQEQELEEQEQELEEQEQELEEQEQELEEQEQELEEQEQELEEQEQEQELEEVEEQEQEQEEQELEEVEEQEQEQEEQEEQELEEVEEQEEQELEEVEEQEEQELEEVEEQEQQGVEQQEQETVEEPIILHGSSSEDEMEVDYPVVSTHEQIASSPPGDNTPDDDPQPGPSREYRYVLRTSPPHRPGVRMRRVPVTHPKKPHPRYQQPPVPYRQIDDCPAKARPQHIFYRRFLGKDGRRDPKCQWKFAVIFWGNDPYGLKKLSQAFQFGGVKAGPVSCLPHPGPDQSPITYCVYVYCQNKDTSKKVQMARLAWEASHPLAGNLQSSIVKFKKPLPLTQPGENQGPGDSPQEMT
The experiment in a line: KSHV LANA DNA-binding disruption – biochemical, fluorescence polarization, cherry-picked samples, dose response (AID 504725).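 Note: fluorescence polarization of a labeled DNA duplex reporting LANA DNA binding; potency is for inhibitors that block LANA binding to the DNA.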 Also on record: species or system Human gammaherpesvirus 8.

Assay [3] addresses Keap1/Nrf2 (Homo sapiens, UniProt Q14145). The experiment in a line: disruptors of Keap1 binding to Nrf2 peptide – biochemical, fluorescence polarization, cherry-picked samples, dose response (AID 588683).
In assay [4] the target is T1, Mannose-6-phosphate isomerase. Put plainly: phosphomannose isomerase inhibition – biochemical, fluorescence intensity, confirmation (AID 1535).
The subject of assay [5] is HEK293. Put plainly: cells. The following applies: Homo sapiens.
Assay [6] relates to HEK293. Put plainly: cells. The following applies: Homo sapiens. This is another data set of the same source.
Assay [7] is described as follows: microbe, parasite or virus in culture. The conditions noted are these: Mycobacterium tuberculosis. The assay is classed as functional.
Assay [8] addresses T3, Ubiquitin-conjugating enzyme E2 N (Homo sapiens, UniProt P61088).
T3 sequence (P61088 whole entry): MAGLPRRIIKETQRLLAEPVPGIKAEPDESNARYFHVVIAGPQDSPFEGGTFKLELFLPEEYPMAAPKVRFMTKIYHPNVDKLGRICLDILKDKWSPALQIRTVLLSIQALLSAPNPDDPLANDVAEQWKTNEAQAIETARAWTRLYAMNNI
The assay is classed as functional.

The test system of assay [9] is Vero. The experiment in a line: cells. The following applies: Chlorocebus sabaeus. The class given is functional, cell-based.
In assay [10] the test system is Vero. The experiment in a line: cells. The class given is functional. The conditions noted are these: Chlorocebus sabaeus.
The target in assay [11] is Voltage-dependent T-type calcium channel subunit alpha-1H (Homo sapiens, UniProt O95180). The class given is functional.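 Note: channel activity triggered by adding a high calcium stimulation buffer.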
Sequence of Voltage-dependent T-type calcium channel subunit alpha-1H (O95180 whole entry): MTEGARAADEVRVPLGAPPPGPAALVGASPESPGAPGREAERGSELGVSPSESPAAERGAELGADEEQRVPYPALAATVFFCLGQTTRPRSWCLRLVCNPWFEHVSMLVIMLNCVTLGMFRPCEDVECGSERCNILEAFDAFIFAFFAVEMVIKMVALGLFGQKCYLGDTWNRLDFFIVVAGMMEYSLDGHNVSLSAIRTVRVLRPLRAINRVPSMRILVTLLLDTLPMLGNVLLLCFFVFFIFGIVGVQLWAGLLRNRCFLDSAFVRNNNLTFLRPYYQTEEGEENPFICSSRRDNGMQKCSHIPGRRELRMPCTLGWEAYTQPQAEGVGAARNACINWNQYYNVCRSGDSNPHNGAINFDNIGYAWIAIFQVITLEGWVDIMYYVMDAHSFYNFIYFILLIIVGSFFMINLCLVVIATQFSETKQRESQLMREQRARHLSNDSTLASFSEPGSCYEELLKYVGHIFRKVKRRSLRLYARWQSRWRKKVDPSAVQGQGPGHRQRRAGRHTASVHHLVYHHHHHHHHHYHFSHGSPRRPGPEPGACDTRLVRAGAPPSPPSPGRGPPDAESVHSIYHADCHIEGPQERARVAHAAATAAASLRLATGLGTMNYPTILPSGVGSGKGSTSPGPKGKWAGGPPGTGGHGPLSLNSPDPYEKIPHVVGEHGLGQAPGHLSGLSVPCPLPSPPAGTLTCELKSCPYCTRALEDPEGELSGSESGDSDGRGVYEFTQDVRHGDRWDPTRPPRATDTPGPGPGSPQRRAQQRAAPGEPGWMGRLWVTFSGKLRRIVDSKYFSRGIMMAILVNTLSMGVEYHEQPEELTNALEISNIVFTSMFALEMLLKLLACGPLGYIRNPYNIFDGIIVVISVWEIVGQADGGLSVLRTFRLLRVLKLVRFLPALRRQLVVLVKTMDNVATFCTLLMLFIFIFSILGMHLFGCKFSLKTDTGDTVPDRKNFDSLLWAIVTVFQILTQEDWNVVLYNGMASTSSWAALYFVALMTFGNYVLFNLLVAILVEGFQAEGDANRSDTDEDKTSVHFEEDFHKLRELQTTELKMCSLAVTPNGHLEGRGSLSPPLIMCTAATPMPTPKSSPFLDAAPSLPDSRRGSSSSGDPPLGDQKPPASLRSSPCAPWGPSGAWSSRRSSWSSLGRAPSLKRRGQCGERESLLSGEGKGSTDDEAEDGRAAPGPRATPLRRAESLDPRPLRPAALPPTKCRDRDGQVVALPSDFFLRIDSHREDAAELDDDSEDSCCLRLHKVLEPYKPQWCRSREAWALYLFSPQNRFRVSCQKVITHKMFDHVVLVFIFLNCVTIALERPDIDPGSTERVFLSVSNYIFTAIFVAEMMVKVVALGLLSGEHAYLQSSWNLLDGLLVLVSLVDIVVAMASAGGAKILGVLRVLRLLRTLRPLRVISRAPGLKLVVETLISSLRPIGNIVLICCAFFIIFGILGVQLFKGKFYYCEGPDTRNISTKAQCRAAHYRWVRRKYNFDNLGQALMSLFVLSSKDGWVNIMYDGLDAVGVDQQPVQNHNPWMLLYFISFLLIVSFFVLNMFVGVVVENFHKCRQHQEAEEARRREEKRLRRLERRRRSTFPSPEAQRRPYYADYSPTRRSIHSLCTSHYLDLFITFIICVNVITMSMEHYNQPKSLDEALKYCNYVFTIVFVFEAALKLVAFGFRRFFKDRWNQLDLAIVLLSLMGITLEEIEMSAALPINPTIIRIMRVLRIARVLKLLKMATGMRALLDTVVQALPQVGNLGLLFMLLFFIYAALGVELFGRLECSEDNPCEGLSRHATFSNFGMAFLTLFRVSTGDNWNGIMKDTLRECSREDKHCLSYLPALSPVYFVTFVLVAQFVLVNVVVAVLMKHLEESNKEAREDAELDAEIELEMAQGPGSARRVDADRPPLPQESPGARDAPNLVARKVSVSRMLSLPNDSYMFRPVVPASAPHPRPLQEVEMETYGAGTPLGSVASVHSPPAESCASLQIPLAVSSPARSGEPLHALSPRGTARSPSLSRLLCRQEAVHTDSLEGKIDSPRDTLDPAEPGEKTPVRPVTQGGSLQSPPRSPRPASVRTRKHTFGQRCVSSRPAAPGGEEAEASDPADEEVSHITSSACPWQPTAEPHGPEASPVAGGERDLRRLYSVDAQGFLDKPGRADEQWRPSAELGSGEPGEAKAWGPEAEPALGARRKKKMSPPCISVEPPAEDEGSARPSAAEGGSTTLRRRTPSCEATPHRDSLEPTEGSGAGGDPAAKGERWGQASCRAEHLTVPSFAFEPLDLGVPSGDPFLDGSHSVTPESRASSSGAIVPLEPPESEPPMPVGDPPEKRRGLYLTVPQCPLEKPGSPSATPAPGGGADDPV
In assay [12] the target is T4, Heat shock factor protein 1 (Mus musculus, UniProt P38532).
T4 sequence (P38532 whole entry): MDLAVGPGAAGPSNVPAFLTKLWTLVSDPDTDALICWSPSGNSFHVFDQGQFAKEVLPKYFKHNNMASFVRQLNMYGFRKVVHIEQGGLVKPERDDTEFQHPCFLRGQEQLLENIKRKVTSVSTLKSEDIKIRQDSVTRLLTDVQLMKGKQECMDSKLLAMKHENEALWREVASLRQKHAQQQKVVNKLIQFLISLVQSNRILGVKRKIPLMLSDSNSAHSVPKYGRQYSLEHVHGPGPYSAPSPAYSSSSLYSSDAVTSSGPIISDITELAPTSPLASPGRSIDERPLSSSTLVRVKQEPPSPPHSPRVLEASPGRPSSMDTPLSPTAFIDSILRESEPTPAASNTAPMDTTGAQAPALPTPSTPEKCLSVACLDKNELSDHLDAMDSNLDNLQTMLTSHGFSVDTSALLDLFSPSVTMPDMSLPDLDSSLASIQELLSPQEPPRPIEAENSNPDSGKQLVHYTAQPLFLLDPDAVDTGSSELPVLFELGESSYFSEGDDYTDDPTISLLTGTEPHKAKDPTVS
Put plainly: decrease of HSF1-responsive luciferase luminescence – cell-based, NIH3T3, dose retest, confirmation (AID 2382).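 Note: NIH3T3 fibroblasts with HSF1-driven luciferase reporter stressed by proteasome inhibitor MG132; luminescence from HSF1-driven luciferase expression after 8 hours of MG132 stress.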 The assay is classed as functional.

Assay [13] concerns the target T5, Exodeoxyribonuclease V (Escherichia coli (strain K12), UniProt P04993+P07648+P08394).
T5 sequence (P04993 whole entry): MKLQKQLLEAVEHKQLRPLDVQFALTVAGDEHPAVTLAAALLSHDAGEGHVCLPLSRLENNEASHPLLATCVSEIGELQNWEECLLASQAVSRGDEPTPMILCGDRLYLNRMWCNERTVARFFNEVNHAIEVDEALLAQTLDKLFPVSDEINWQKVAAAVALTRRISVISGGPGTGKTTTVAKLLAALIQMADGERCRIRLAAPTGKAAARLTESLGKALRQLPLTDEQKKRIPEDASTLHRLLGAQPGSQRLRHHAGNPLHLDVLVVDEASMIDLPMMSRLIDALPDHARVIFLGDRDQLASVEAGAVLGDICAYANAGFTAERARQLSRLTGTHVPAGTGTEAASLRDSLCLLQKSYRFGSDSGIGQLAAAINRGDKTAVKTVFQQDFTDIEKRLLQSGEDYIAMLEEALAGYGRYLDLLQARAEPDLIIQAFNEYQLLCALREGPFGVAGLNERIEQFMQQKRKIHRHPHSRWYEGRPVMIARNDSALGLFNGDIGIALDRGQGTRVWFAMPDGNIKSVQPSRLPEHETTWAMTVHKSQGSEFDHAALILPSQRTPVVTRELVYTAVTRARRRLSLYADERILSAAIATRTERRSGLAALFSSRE
T5 sequence (P07648 whole entry): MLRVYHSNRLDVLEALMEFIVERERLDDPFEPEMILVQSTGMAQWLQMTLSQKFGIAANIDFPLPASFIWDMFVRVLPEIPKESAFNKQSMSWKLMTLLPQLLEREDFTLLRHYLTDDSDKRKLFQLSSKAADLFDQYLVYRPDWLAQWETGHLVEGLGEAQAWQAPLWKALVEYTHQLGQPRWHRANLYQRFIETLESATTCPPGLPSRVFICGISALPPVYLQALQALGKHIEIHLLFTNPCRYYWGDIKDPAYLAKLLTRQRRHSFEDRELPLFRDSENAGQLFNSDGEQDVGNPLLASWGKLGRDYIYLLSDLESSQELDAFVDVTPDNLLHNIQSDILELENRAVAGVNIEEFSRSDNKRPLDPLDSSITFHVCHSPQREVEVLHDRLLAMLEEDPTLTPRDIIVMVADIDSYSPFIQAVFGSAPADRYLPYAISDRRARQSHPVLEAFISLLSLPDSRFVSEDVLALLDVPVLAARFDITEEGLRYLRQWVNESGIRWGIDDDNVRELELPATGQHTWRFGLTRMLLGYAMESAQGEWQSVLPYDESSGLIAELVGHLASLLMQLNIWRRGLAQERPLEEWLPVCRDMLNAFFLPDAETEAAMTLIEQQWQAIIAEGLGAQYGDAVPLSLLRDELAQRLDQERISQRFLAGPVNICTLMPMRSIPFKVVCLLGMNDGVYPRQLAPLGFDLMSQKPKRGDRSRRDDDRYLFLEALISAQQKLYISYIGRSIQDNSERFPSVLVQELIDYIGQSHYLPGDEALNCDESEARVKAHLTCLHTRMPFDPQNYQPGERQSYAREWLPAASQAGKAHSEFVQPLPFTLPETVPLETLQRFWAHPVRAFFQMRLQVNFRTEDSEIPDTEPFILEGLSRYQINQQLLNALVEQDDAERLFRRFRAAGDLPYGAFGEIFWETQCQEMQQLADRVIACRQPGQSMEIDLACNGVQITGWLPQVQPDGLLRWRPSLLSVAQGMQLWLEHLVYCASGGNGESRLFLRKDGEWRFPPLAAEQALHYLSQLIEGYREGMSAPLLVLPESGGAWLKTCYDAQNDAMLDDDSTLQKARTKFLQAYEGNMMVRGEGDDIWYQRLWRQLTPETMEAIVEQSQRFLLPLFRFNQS
T5 sequence (P08394 whole entry): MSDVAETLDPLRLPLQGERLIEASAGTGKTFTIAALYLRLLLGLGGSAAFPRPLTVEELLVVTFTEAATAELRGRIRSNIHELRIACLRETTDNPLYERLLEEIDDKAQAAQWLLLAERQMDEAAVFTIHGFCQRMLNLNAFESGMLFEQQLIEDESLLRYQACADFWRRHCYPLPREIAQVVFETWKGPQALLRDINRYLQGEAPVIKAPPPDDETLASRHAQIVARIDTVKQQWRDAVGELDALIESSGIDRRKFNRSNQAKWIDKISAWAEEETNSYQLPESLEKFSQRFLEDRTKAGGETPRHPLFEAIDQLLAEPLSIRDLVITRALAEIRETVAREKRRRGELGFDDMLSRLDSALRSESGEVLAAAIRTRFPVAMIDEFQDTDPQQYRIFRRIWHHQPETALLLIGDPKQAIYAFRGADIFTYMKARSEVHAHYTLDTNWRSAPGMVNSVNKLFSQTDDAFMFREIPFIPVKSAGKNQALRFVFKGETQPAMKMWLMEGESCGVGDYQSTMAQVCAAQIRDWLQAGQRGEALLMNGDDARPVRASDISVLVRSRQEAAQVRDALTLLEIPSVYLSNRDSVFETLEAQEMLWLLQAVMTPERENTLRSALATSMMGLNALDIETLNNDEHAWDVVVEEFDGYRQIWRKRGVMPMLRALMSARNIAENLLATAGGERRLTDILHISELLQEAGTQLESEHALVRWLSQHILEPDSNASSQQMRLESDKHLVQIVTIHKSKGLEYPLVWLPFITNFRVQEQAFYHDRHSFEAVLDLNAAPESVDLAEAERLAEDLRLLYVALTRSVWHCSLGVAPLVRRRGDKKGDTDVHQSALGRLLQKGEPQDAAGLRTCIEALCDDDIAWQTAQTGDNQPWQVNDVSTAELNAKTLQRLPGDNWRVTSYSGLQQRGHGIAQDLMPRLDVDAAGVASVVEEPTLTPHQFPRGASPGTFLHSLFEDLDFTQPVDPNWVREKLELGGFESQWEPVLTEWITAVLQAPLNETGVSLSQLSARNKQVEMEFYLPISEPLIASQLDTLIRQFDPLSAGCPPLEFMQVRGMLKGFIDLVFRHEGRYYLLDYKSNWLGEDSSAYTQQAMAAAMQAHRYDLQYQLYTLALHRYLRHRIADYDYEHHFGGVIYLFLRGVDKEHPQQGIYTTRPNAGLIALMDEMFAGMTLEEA
Put plainly: RecBCD inhibition via phage-restricted bacterial growth – absorbance, V66 E. coli, mutant T4 phage, counter-screen for AddAB inhibitor project, dose response (AID 492957). The class given is functional, cell-based, Escherichia coli str. K-12 substr. MG1655.

Assay [14] can be described thus: Counterscreen for AddAB inhibitors: absorbance-based bacterial cell-based high throughput dose response assay for inhibitors of bacterial viability. [Related pubchem assays (depositor defined):AID435030, AID449728, AID449731, AID488942, AID488955, AID488956]. The assay is classed as functional.

Each structure is given as a SMILES string. Activity calls are given as the source filed them.

Sequence of Keap1/Nrf2 (Q16236 whole entry): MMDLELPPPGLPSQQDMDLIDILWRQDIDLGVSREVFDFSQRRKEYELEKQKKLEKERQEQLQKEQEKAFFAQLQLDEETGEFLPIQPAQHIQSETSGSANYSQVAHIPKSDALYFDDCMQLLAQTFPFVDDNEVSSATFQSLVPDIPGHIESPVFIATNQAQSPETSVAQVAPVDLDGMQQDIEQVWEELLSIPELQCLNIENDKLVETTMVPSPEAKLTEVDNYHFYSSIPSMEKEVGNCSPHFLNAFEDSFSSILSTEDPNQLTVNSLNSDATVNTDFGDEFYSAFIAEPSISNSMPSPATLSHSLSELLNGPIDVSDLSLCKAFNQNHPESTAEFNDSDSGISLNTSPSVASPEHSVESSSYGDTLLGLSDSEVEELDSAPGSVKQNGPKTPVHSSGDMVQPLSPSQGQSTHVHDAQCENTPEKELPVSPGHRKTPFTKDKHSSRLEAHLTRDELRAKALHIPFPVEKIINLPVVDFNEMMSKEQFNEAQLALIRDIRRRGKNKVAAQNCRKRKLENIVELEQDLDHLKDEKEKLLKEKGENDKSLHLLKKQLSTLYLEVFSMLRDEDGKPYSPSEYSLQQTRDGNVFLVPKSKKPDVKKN
Sequence of Keap1/Nrf2 (Q14145 whole entry): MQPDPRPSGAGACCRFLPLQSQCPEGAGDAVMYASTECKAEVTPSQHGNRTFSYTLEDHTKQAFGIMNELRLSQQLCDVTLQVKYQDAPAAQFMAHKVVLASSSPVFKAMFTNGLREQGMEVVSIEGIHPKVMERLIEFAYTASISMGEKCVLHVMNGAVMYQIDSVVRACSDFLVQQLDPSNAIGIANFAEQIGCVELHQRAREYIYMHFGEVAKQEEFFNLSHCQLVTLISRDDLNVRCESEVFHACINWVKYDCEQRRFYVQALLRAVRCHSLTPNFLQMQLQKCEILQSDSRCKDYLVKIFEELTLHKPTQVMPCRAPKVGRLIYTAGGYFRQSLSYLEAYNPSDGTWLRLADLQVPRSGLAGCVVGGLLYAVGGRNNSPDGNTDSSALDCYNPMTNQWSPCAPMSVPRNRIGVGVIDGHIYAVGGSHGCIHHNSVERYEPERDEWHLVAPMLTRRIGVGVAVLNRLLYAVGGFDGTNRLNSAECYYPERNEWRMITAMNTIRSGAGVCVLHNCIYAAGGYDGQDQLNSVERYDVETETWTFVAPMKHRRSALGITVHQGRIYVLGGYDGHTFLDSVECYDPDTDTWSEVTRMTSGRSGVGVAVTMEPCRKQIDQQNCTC

Regarding `Cc1cc2nc3c(=O)n(C4CCCCC4)c(=O)[nH]c3nc2cc1N`, in assay [1], the IC50 is given as > 50 µM (not active). Moreover, the half-maximal activity concentration (AC50) in assay [2] is 27.6 µM (active); in assay [3], 1.92 µM (active).
For `CCOc1nss/c1=N\c1ccc2ccccc2c1`, the IC50 in assay [4] is > 100 µM (inactive).
As to `CC(C)Cn1c(=O)[nH]c(=O)c2c(C(F)(F)F)cc(-c3ccccc3)nc21`, the EC50 in assay [5] and in [6] was > 59.6 µM (inactive) throughout.
For `CN1CCN(CC/C=C2/c3ccccc3Sc3ccc(S(=O)(=O)N(C)C)cc32)CC1` [THIOTHIXENE], the CC50 was > 40 µM (active) in assay [7] and 15.2 µM (active) in assay [10]. Besides, the results for the IC50 in [8] and in assay [9] were > 20 µM (inactive) and > 25 µM (active), respectively.
Take `Clc1nss/c1=N\C1=NCCS1`: the IC50 in assay [4] is > 100 µM (inactive).
Turning to `CCOC(=O)C1CCCN(C(=O)C2c3ccccc3Oc3ccccc32)C1` (configuration not stated), the EC50 in [11] is 38.8 µM (active). The AC50 is 127 µM (active) in assay [2] and > 52 µM (inactive) in assay [3].
As for `Cc1ccc(-c2oc3ccccc3c(=O)c2O)cc1`, in assay [12], the half-maximal effective concentration (EC50) is given as > 195 µM (not active). For the same compound, the IC50 in [13] and in assay [14] was > 119 µM (inactive) in each case.
